The source of these data is patent publication US9044388B2, “Dry eye treatment” (Ocular Research of Boston, Inc., priority 2005, dated 2015).

For series [1] the following is noted: result in words; cited from earlier work.
For series [2], the system named is eye. Description: Subjective sensation / stinging of emulsions and their surfactants on the eye. In kind it is in vivo, human. To be noted: higher concentration as sole primary surfactant. The procedure: The subjective sensation realized with both formulations was evaluated as comfortable, and without any form of adverse sensation.
Series [3] has as its system eye. The conditions noted are these: in vivo; cited from earlier work.
Another series has as its system ocular surface. Description: Evaluation of comfort on the eye (sensation after one drop). The format is in vivo, human. The conditions noted are these: even in concentrations ≦0.10%. As for the experimental part: The vehicle used for all formulations was Unisol 4, a buffered saline solution marketed by Alcon Laboratories, Fort Worth, Tex. Unisol 4 had previously been studied and found to be the most comfortable normal saline product for use on the ocular surface. It was therefore used as a vehicle for the test formulations, and was also used as a control. A drop of each of the 5 test formulations was placed on to the ocular surfaces of each subject, utilizing a 15 ml dropper container that delivered a drop of 40 μl to the ocular surface. […] The results obtained with 6 subjects, all of whom evaluated each of the test formulation on two different days are summarized in Table 3.

As to `CCCCCCCCCCCCCCCCCC(=O)OCC(O)CO` (stereo not shown) [GMS, glycerol monostearate], in series [1], the solubility result was “oil soluble”.
On to `CCCCCCCC/C=C\CCCCCCCC(=O)OCCOCC(OCCO)C1OCC(OCCO)C1OCCO` (stereo not shown) [Polysorbate-80], for which the “effect of higher surfactant concentration on the eye” value with eye [2] was “led to stinging on the eye”.
Consider polyoxyethylene (40) stearate [Myrj-52], for which the “ocular discomfort on increasing the concentration” value in the series on eye [3] is listed as “significant stinging”.
In the case of sorbitan monolaurate [Span 20], in the series on ocular surface, the “sting when applied to the eye and ocular surfaces” value was “sting”.
